This note sets out measurements from patent publication US9163032B2, “Esters of DCPLA and methods of treatment using the same” (Blanchette Rockefeller Neurosciences Institute, priority 2011, dated 2015).

Broadly, the Emax is the greatest response seen or fitted, relative to the assay's reference. Broadly, the EC50 is the concentration giving half of the maximal effect. The low end stands for an effect from little substance, the high end for a need for much substance.

Data set [1] deals with T1, PKC-ε (Homo sapiens, UniProt Q02156).
T1 sequence (Q02156 1-737): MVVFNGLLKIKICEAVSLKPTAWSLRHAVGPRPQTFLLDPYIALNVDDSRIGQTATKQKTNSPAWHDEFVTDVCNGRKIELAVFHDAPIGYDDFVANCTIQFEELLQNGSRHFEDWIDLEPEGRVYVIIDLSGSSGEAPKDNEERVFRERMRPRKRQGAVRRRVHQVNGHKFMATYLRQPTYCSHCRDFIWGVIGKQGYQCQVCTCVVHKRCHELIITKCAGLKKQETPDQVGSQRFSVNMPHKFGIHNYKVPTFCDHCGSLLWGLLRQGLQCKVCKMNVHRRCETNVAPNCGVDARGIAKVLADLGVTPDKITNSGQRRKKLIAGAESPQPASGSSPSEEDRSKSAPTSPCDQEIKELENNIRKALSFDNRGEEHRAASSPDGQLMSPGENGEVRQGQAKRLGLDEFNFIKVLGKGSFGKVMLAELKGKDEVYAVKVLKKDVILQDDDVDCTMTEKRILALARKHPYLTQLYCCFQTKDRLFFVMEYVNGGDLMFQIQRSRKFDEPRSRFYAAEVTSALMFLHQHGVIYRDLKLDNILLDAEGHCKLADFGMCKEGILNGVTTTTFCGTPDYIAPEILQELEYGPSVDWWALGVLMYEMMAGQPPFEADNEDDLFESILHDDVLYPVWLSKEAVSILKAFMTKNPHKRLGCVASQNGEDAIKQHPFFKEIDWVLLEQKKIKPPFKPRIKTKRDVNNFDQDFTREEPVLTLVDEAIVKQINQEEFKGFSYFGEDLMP
In words: PKC activation assay with purified PKC-ε isozyme (32P-phosphoprotein formation). The data set is classed as biochemical. How it is done: For measurement of PKC activation by DCPLA-ME, activation of recombinant PKC-α, PKC-ε, and PKC-δ was evaluated. DCPLA-ME induced activation was measured in the absence of diacylglycerol (DAG) and phosphatidylserine (PS) as described earlier. See Nelson, T. J. et al., J. Biol. Chem., 2009, 284: 34514-34521, and Kanno, T. et al., J. Cell Physiol., 2009, 221: 183-188. Individual enzymes were incubated for 15 min at 37° C. in the presence of 10 μM histones, 4.89 mM CaCl2, 10 mM MgCl2, 20 mM HEPES (pH 7.4), 0.8 mM EDTA, 4 mM EGTA, 4% glycerol, 8 μg/ml aprotinin, 8 μg/ml leupeptin, 2 mM benzamidine, and 0.5 μCi of [γ-^32P]ATP. Purified PKC-α, PKC-ε and PKC-δ were preincubated with DCPLA-ME for 5 min at room temperature. [^32P]-Phosphoprotein formation was measured by adsorption onto phosphocellulose.
To measure PKC, 10 μl of cell homogenate or purified PKC isozyme was incubated for 15 min at 37° C. in the presence of 10 μM histones, 4.89 mM CaCl2, 1.2 μg/μl phosphatidyl-L-serine, 0.18 μg/μl 1,2-dioctanoyl-sn-glycerol, 10 mM MgCl2, 20 mM HEPES (pH 7.4), 0.8 mM EDTA, 4 mM EGTA, 4% glycerol, 8 μg/ml aprotinin, 8 μg/ml leupeptin, and 2 mM benzamidine. [γ32P]ATP (0.5 μCi) was added and 32P-phosphoprotein formation was measured by adsorption onto phosphocellulose as described previously. See Nelson et al., J. Neurochemistry, 1995, 65: 2350-2357.
PKC activity of each compound was measured in the absence of diacylglycerol and phosphatidyl-L-serine and PKC-δ and PKC-ε were measured in the absence of added EGTA and CaCl2, as described by Kanno et al., J. Lipid Res., 2006, 47: 1146-1156. Low concentrations of Ca^2+ are needed because high Ca^2+ interacts with the PKC phosphatidylserine binding site and prevents activation. […] To determine their PKC isozyme specificity, the compounds were pre-incubated with purified isoforms of PKC for five minutes and the PKC activity was measured radiometrically.
The activation and PKC isozyme specificity of DCPLA-ethyl ester was measured following the procedures in Example 1(B) and (C), except that 9 ng of the purified isozyme was used and it was pre-incubated for 5 minutes at room temperature (FIG. 3). PKC-ε activation by DCPLA-tert-butyl ester and DCPLA-retinyl ester was measured in the same manner as DCPLA-ethyl ester (FIG. 3).
The EC50 values, PKC specificity, and activation for a select number of DCPLA esters was determined (see Table 1). EC50 values were determined by measuring the lowest concentration that activates by 50% of maximum activation. […] The specificity and activation of PKC by the various esters of DCPLA were determined from the measurements of activation of PKC isozymes.

For data set [2], the system named is rat hippocampal neurons. In words: Dendritic branching in seven day old rat hippocampal neurons (confocal microscopy). Conditions: 100 nM, 48 hr. The data set is classed as cell-based. How it is done: The effect of DCPLA-ME on development of primary neurons was investigated. Seven day old rat hippocampal neurons were treated with DCPLA-ME (100 nM) for 48 hr. Immunofluorescence and confocal microscopy-cells were grown in four chambered slides (Nunc, USA) at low density. For immunofluorescence staining the cells were washed with PBS (pH 7.4) and fixed with 4% paraformaldehyde for 4 min. Following fixation, cells were blocked and permeabilized with 5% serum and 0.3% Triton X-100 in 1×PBS for 30 min. Cells were washed 3× with 1×PBS and incubated with primary antibodies for 1 hr at 1:100 dilution. After the incubation slides were again washed 3× in 1×PBS and were incubated with the FITC anti-rabbit IgG and Rhodamine anti-mouse IgG for 1 hr at 1:400 dilution. Cells were further washed and mounted in Pro Long Gold antifade mounting solution (Invitrogen, USA). Stained cells were viewed under the LSM 710 Meta confocal microscope (Zeiss) at 350 nm, 490 nm and 540 nm excitation and 470 nm, 525 nm and 625 nm emission for DAPI, FITC and rhodamine respectively. Six individual fields at 20× or 63× oil lens magnification were analyzed for the mean fluorescence intensity (MFI) in each channel. The colocalization correlation was generated by the ZEN software (Zeiss).

Data set [3] relates to Wistar rats. In words: Visible platform test (sensorimotor activity and escape motivation). The data set is classed as in vivo, rat. The conditions noted are these: oral DCPLA-ME 5.3 or 16.0 mg/kg. On the procedure:
Water maze spatial learning and memory task (2 training trials/day for 4 days) was used to evaluate effects of oral DCPLA-ME on learning and memory in rats. A visible platform test was conducted after the end of the experiments to evaluate whether the treatment might result in an altered sensorimotor activity and escape motivation.
At the end of the experiments, the rats were also tested in a visible platform test to evaluate whether the treatment might result in an altered sensorimotor activity and escape motivation.

In turn, `CCCCCC1CC1CC1CC1CCCCCCCC(=O)OC` (centres unmarked) [DCPLA-ME, DCPLA methyl ester] showed an Emax in data set [1] (% of control of PKCε at maximum) of 195%. In addition, the “Specificity ε/α” value in data set [1] (Activation of PKC-ε ÷ activation or inhibition of PKCα at 3xEC50) is reported as 12.1. The “PKC isozyme specificity” value in data set [1] (PKC-ε vs PKC-α and PKC-δ) is “relatively specific for PKC-ε”. Moreover, the PKC-ε activation entry in data set [1] (in a range of 0.01-10 μM) is reported as “more than 50%”. Moreover, the EC50 in data set [1] (lowest concentration that activates by 50% of maximum activation) was determined as 3 nM. The “PKC-ε activation at its peak” value in data set [1] (maximum, FIG. 1, 2, 4) is “up to 190 % of control”. Also, the Synaptophysin staining entry in data set [2] is “increased”. Moreover, the “sensorimotor ability and escape motivation” value in data set [3] was “did not affect rats' sensorimotor ability and motivation for an escape”.
